Ends that are not written are not given here.
Tests used:
Nox1-YFP = test: Image cross correlation spectroscopy (ICCS) of R-NoxA1ds and Nox1-YFP; format: binding; settings: ICCS, 100 images 0.05 s apart
Protocol: An ELISA of Nox1:NoxA1ds interaction was performed as follows. Neutravidin coated plates were incubated with biotin-tagged NoxA1ds (Biotin-NoxA1ds) or biotin-tagged SCRMB (Biotin-SCRMB) before addition of cell membranes prepared from cells transfected with Nox1 (Nox1 membrane) or transfected with an empty vector (COS22 membrane). Bound Nox1 was detected through a FITC conjugated secondary antibody (αRabbit Ab Sigma F9887) bound to the Nox1 primary antibody (rabbit αNox1 Ab (SC-25545, Santa Cruz Biotechnology)). FITC fluorescence was expressed as binding as % COS22 membranes on each experimental day. […] To further confirm the association, image cross correlation spectroscopy (ICCS) was used to determine patterns in signal fluctuation between rhodamine-labeled NoxA1ds (R-NoxA1ds) and Nox1-YFP though a sequence of 100 images 0.05 s apart. Correlation and cross-correlation was calculated using an ImageJ plugin.

[1] = target: T1, interaction between Nox1 and NoxA1 (Homo sapiens, UniProt Q9Y5S8); test: FRET between Nox1-YFP and NoxA1-CFP in transfected COS22 cells; format: cell-based; settings: 10 μM, one hour prior to imaging
T1 construct: expressed in transfected cells; host or cells: COS22
T1 sequence (Q9Y5S8 1-564): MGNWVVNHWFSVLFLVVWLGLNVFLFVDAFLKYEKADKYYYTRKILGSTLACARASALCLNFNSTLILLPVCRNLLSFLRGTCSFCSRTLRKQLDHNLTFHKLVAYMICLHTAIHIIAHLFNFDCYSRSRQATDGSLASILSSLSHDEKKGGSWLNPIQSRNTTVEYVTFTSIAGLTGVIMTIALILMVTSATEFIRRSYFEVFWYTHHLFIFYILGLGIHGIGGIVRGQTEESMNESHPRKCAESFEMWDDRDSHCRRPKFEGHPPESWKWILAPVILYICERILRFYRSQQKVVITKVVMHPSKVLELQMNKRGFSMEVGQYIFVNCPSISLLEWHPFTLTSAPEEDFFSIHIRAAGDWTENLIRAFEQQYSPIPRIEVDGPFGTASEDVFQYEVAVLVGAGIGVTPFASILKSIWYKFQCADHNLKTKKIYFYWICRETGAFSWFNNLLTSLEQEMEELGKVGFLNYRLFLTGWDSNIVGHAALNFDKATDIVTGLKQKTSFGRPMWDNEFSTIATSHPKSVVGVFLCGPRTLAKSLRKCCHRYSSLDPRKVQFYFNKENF
T1 sequence (P13498 2-195 partner limits assumed): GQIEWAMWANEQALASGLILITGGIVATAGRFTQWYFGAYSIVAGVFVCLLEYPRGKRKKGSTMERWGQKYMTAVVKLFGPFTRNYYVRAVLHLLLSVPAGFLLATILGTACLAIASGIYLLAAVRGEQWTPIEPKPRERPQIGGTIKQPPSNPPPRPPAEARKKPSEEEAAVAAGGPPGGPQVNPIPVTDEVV
Protocol: FRET (fluorescence resonance energy transfer) studies were performed to study the effect of NoxA1ds on the interaction between Nox1 and NoxA1: In particular, FRET between Nox1-YFP and NoxA1-CFP transfected COS22 cells in the presence or absence of 10 μM NoxA1ds or SCRMB was evaluated. Relative fluorescence of CFP is green while YFP is red. Traces underneath the images indicate fluorescent intensities of CFP and YFP underneath the arrow overlaid on each cell.

[2] = system: rat aortic smooth muscle cells; test: Calponin and osteopontin expression in stretched rat aortic smooth muscle cells (Western blot); format: cell-based; settings: 10 μM added every four hours; cyclic stretch 24 hrs
Protocol: The effect of Nox1 inhibition on the expression of certain protein markers of rat aortic smooth muscle cell contractile vs. synthetic phenotypes was evaluated. Cells were subjected to 24 hrs of cyclic stretch (10%, 1 Hz) with 10 μM NoxA1ds or SCRMB control being added every four hours. […] Calponin expression during stretch was rescued by the addition of 10 μM NoxA1ds, yet was unaffected by the addition of 10 μM scrambled peptide (SCRMB). A representative Western blot is shown below the graph (FIG. 9B). Osteopontin (OPN, a marker of the […] phenotype), expression increased after 24 hrs of stretch.

[3] = system: HT-29 colon adenocarcinoma cells; test: O2- production by HT-29 cells (SOD inhibitable reduction of cytochrome c); format: cell-based; settings: increasing doses
[4] = system: human pulmonary artery endothelial cells; test: Hypoxia-induced superoxide production by human pulmonary artery endothelial cells; format: cell-based
Protocol: Experiments were also performed to evaluate the effect of NoxA1ds on hypoxia-induced superoxide production by human pulmonary artery endothelial cells.

Nox1 = target: T2, Nox1 (Homo sapiens, UniProt Q9Y5S8); test: O2- production by COS22 cells transfected with Nox1 (cytochrome c reduction); format: cell-based; settings: increasing concentrations
T2 construct: expressed in transfected cells; host or cells: COS22 (monkey kidney COS cells stably expressing human p22phox)
T2 sequence (Q9Y5S8 1-564): T1 sequence (Q9Y5S8 1-564)
T2 sequence (P13498 1-195 partner): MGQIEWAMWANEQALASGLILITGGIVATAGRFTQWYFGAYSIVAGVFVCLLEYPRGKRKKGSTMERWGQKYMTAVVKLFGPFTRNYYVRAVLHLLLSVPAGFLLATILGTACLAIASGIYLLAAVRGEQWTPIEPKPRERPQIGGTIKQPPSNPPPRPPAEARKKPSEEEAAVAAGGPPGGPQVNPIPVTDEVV
Protocol: Experiments were performed to test the effect of NoxA1ds on O2^− production by Nox1. COS22 is a monkey kidney COST cell line expressing transgenic human p22phox and was produced by stable transfection of the full-length p22phox cDNA into parental COST wild-type cells. COS22 cells were transfected with Nox1 to express the Nox1 enzyme and were then treated with either NoxA1ds or its scrambled control (SCRMB). Production of O2^− was calculated by monitoring the reduction of cytochrome c for 15 minutes post NADPH addition and subtracting baseline cytochrome c reduction occurring in the presence of SOD.

| Fractional binding of Nox1-YFP and R-NoxA1ds (Nox1-YFP) | Inhibition of Nox1-derived O2- production (Nox1) | Substance | CFP fluorescence after photobleaching of Nox1-YFP (FRET) [1] | Calponin expression during stretch [2] | Osteopontin (OPN) expression during stretch [2] | Inhibition of O2- production by HT-29 cells [3] | O2- production under hypoxia ([4]; hypoxia 1.0% O2, 24 hrs) | O2- production under normoxic conditions ([4]; normoxia) |
| --- | --- | --- | --- | --- | --- | --- | --- | --- |
| ~1.0 | – | R-NoxA1ds: rhodamine-labeled NoxA1ds (EPVDALGKAKV-NH2; also: rhodamine label, position not given here) | – | – | – | – | – | – |
| – | did not inhibit | SCRMB: inactive, scrambled version of NoxA1ds (negative control) (H-LVKGPDAEKVA-NH2) [reference compound] | resulted in a concomitant increase in CFP fluorescence | unaffected | unaffected | did not inhibit | unaffected | negligible effect |

Source: patent US9770481B2, “Inhibitors of NOX1” (UNIVERSITY OF PITTSBURGH—OF THE COMMONWEALTH SYSTEM OF …, priority 2011, dated 2017)
